Laboratory results from patent publication US12344610B2, “APOL1 inhibitors and methods of use” (Maze Therapeutics, Inc., priority 2022, dated 2025).
Like-named read-outs stand apart in the source and are kept apart here.

Legend:
Format in all cases: cell-based
[1] = tested on: Trypanosoma brucei Lister 427 VSG221 with APOL1 G1 recombinant protein; experiment: APOL1 G1 trypanosome cell rescue assay (Example B5); conditions: geometric mean of at least 2 assay runs, † = single assay run
Outline: (§1)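 Mature APOL1 (residues 28-398, E. coli-expressed, His-tag removed by TEV) was added as a 2 μg/mL solution to T. brucei Lister 427 VSG221 in modified HMI-9 medium at 250 cells/well, with duplicate 11-point 2-fold compound dilutions (0.4% DMSO). After 20 h at 37° C, 5% CO2, viability was read by CellTiter-Glo luminescence.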

[2] = tested on: HEK293 clonal cell line overexpressing APOL1 G1; experiment: APOL1 G1 HEK293 cell rescue assay (Example B3); conditions: geometric mean of at least 2 runs, † = single run, ¥ = concentration at 50% rescue estimated (no sigmoidal curve)
Outline: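 HEK293 clonal line overexpressing APOL1 G1; EC50 is half-maximal reversal of APOL1-induced cell death. Values are the geometric mean of ≥2 runs on separate days, each run the average of duplicate wells. Where no sigmoidal curve could be fitted, the concentration giving 50% rescue was estimated.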

[3] = tested on: Trypanosoma brucei Lister 427 VSG221 with APOL1 G0 recombinant protein; experiment: APOL1 G0 trypanosome cell rescue assay (Example B5); conditions: geometric mean of at least 2 assay runs, † = single assay run
Outline: as §1

[4] = tested on: Trypanosoma brucei Lister 427 VSG221 with APOL1 G2 recombinant protein; experiment: APOL1 G2 trypanosome cell rescue assay (Example B5); conditions: geometric mean of at least 2 assay runs, † = single assay run
Outline: as §1

[5] = Trypanosoma brucei, 20 h, read-out: APOL1 G1 Trypanosome Rescue EC50, Trypanosoma brucei Lister 427 VSG221 with APOL1 G1 recombinant protein, 20 hours, CellTiter-Glo
[6] = HEK293 clonal line overexpressing APOL1 G1
[7] = Trypanosoma brucei, 20 h, read-out: APOL1 G0 Trypanosome Rescue EC50, Trypanosoma brucei Lister 427 VSG221 with APOL1 G0 recombinant protein, 20 hours, CellTiter-Glo
[8] = Trypanosoma brucei, 20 h, read-out: APOL1 G2 Trypanosome Rescue EC50, Trypanosoma brucei Lister 427 VSG221 with APOL1 G2 recombinant protein, 20 hours, CellTiter-Glo
[9] = Homo sapiens, HEK293, HEK293 clonal line overexpressing APOL1 G1
[10] = read-out: APOL1 G1 Trypanosome Rescue EC50, Trypanosoma brucei Lister 427 VSG221 with APOL1 G1 recombinant protein, 20 hours, CellTiter-Glo
[11] = read-out: APOL1 G0 Trypanosome Rescue EC50, Trypanosoma brucei Lister 427 VSG221 with APOL1 G0 recombinant protein, 20 hours, CellTiter-Glo
[12] = read-out: APOL1 G2 Trypanosome Rescue EC50, Trypanosoma brucei Lister 427 VSG221 with APOL1 G2 recombinant protein, 20 hours, CellTiter-Glo

| Compound | EC50 [1, 5] | EC50 [2, 6] | EC50 [3, 7] | EC50 [4, 8] | EC50 [2, 9] | EC50 [1, 10] | EC50 [3, 11] | EC50 [4, 12] |
| --- | --- | --- | --- | --- | --- | --- | --- | --- |
| CC(COc1ccc2c(c1)CCC(=O)N2C)N1CCC2(CC1)C(=O)Nc1ccc(Cl)cc12 (single isomer, unassigned) [Compound 200] | 192 nM | 203 nM | 185 nM | 72.4 nM |  |  |  |  |
| CC(COc1ccc2c(c1)CCC(=O)N2C)N1CCC2(CC1)C(=O)Nc1ccc(C#N)cc12 (single isomer, unassigned) [Compound 203, (S) or (R)-1′-{1-[(1-methyl-2-oxo-1,2,3,4-tetrahydroquinolin-6-yl)oxy]propan-2-yl}-2-oxo-1,2-dihydrospiro[indole-3,4′-piperidine]-5-carbonitrile] | 583 nM | 457 nM | 565 nM | 227 nM |  |  |  |  |
| C[C@@H](COc1ccc(S(C)(=O)=O)c(C(F)F)c1)N1CCC2(CC1)C(=O)Nc1ccc(Cl)cc12 (single isomer, unassigned) [Compound 210] | 71.1 nM |  | 63.8 nM | 21.8 nM | 153 nM |  |  |  |
| C[C@@H](COc1ccc2c(cnn2C)c1)N1CCC2(CC1)C(=O)Nc1ccc(Cl)cc12 (single isomer, unassigned) [Compound 211] | 527 nM |  | 480 nM | 159 nM | 380 nM |  |  |  |
| C[C@@H](COc1ccc(S(C)(=O)=O)c(C(F)F)c1)N1CCC2(CC1)C(=O)Nc1ccc(C#N)cc12 (single isomer, unassigned) [Compound 212] | 103 nM |  | 69.6 nM | 32.1 nM | 192 nM |  |  |  |
| CS(=O)(=O)c1ccc(OCCN2CCC3(CC2)C(=O)Nc2ccc(Cl)cc23)cc1C(F)CF (single isomer, unassigned) [Compound 218, 5-chloro-1′-(2-{3-[(1S or 1R)-1,2-difluoroethyl]-4-methanesulfonylphenoxy}ethyl)-1,2-dihydrospiro[indole-3,4′-piperidin]-2-one] |  |  |  |  | 125 nM | 108 nM | 65.1 nM | 31.6 nM |
| CS(=O)(=O)c1ccc(OCCN2CCC3(CC2)C(=O)Nc2ccc(Cl)cc23)cc1C(F)CF (single isomer, unassigned) [Compound 219, 5-chloro-1′-(2-{3-[(1R or 1S)-1,2-difluoroethyl]-4-methanesulfonylphenoxy}ethyl)-1,2-dihydrospiro[indole-3,4′-piperidin]-2-one] |  | 116 nM |  |  |  | 39 nM | 22.3 nM | 10.5 nM |
| CS(=O)(=O)c1ccc(OCCN2CCC3(CC2)C(=O)Nc2ccc(C#N)cc23)cc1C(F)CF (single isomer, unassigned) [Compound 221, 1′-(2-{3-[(1S or 1R)-1,2-difluoroethyl]-4-methanesulfonyl-phenoxy}ethyl)-2-oxo-1,2-dihydrospiro [indole-3,4′-piperidine]-5-carbonitrile] | 129 nM | 217 nM | 75 nM | 29.5 nM |  |  |  |  |
| CC(COc1ccc(C2(S(C)(=O)=O)COC2)cc1)N1CCC2(CC1)C(=O)Nc1ccc(C#N)cc12 (single isomer, unassigned) [Compound 263, (S) or (R)-1′-{1-[4-(3-methanesulfonyloxetan-3-yl)phenoxy]propan-2-yl}-2-oxo-1,2-dihydrospiro[indole-3,4′-piperidine]-5-carbonitrile] | 320 nM | 462 nM | 226 nM | 95.3 nM |  |  |  |  |
| CN1C(=O)C2(CCN(CCOc3ccc(C4(S(C)(=O)=O)CC(O)C4)cc3)CC2)c2cc(C(F)F)ccc21 (single isomer, unassigned) [Compound 278, 5-(difluoromethyl)-1-methyl-1′-(2-{4-[(cis) or (trans)-3-hydroxy-1-methanesulfonylcyclobutyl]phenoxy}ethyl)-1,2-dihydrospiro[indole-3,4′-piperidin]-2-one] |  | 92.6 nM | 114 nM |  |  | 111 nM |  | 25.5 nM |
| CS(=O)(=O)C1(c2ccc(OCCN3CCC4(CC3)C(=O)Nc3ccc(C(F)F)cc34)cc2)CC(O)C1 (single isomer, unassigned) [Compound 281, 5-(difluoromethyl)-1′-(2-{4-[(cis) or (trans)-3-hydroxy-1-methanesulfonylcyclobutyl]phenoxy}ethyl)-1,2-dihydrospiro[indole-3,4′-piperidin]-2-one] |  | 164 nM | 95.9 nM |  |  | 101 nM |  | 28.1 nM |
| CC(O)c1ncc(OCCN2CCC3(CC2)C(=O)Nc2ccc(Cl)cc23)cn1 (single isomer, unassigned) [Compound 285, 5-chloro-1′-[2-({2-[(1S) or (1R)-1-hydroxyethyl]pyrimidin-5-yl}oxy)ethyl]-1,2-dihydrospiro[indole-3,4′-piperidin]-2-one] | 749 nM |  | 547 nM | 212 nM | 292 nM |  |  |  |
| CC(O)c1ncc(OCCN2CCC3(CC2)C(=O)Nc2ccc(Cl)cc23)cn1 (single isomer, unassigned) [Compound 286, 5-chloro-1′-[2-({2-[(1R) or (1S)-1-hydroxyethyl]pyrimidin-5-yl}oxy)ethyl]-1,2-dihydrospiro[indole-3,4′-piperidin]-2-one] |  | 272 nM |  |  |  | 629 nM | 505 nM | 175 nM |
| CC(O)c1ncc(OCCN2CCC3(CC2)C(=O)Nc2ccc(C(F)F)cc23)cc1C(F)(F)F (single isomer, unassigned) [Compound 287, 5-(difluoromethyl)-1′-[2-({6-[(1S) or (1R)-1-hydroxyethyl]-5-(trifluoromethyl)pyridin-3-yl}oxy)ethyl]-1,2-dihydrospiro[indole-3,4′-piperidin]-2-one] | 50 nM |  | 37.6 nM | 13.9 nM | 85.8 nM |  |  |  |
| CC(O)c1ncc(OCCN2CCC3(CC2)C(=O)Nc2ccc(C(F)F)cc23)cc1C(F)(F)F (single isomer, unassigned) [Compound 288, 5-(difluoromethyl)-1′-[2-({6-[(1R) or (1S)-1-hydroxyethyl]-5-(trifluoromethyl)pyridin-3-yl}oxy)ethyl]-1,2-dihydrospiro[indole-3,4′-piperidin]-2-one] |  | 62.1 nM |  |  |  | 36.1 nM | 26.2 nM | 9.75 nM |
| CC[C@]1(O)C[C@H](N2C(=O)CCc3cc(OCCN4CCC5(CC4)C(=O)Nc4ccc(Cl)cc45)cnc32)C1 (single isomer, unassigned) [Compound 290, 5-chloro-1′-[2-({7-oxo-8-[(trans)-3-ethyl-3-hydroxycyclobutyl]-5,6,7,8-tetrahydro-1,8-naphthyridin-3-yl}oxy)ethyl]-1,2-dihydrospiro[indole-3,4′-piperidin]-2-one] | 69.2 nM |  | 55.5 nM | 24 nM | 63.9 nM |  |  |  |
| CC(O)c1ncc(OCCN2CCC3(CC2)C(=O)Nc2ccc(Cl)cc23)cc1C(F)(F)F (single isomer, unassigned) [Compound 291, 5-chloro-1′-[2-({6-[(1R) or (1S)-1-hydroxyethyl]-5-(trifluoromethyl)pyridin-3-yl}oxy)ethyl]-1,2-dihydrospiro[indole-3,4′-piperidin]-2-one] |  | 104 nM | 63.1 nM |  |  | 79.7 nM |  | 26.5 nM |
| CC(O)c1ncc(OCCN2CCC3(CC2)C(=O)Nc2ccc(Cl)cc23)cc1C(F)(F)F (single isomer, unassigned) [Compound 292, 5-chloro-1′-[2-({6-[(1S) or (1R)-1-hydroxyethyl]-5-(trifluoromethyl)pyridin-3-yl}oxy)ethyl]-1,2-dihydrospiro[indole-3,4′-piperidin]-2-one] |  | 51.5 nM |  |  |  | 39.6 nM | 31.6 nM | 10.8 nM |
| O=C1CCc2cc(OCCN3CCC4(CC3)C(=O)Nc3ccc(Cl)cc34)cnc2N1[C@H]1C[C@@](O)(C2CC2)C1 (single isomer, unassigned) [Compound 297, 5-chloro-1′-[2-({7-oxo-8-[(trans)-3-cyclopropyl-3-hydroxycyclobutyl]-5,6,7,8-tetrahydro-1,8-naphthyridin-3-yl}oxy)ethyl]-1,2-dihydrospiro[indole-3,4′-piperidin]-2-one] | 85.4 nM |  | 72.6 nM | 31.5 nM | 119 nM |  |  |  |
